Data: paper PMC8641662 (Frontiers in Plant Science, 2021)

Key:
[1] = system: red clover HDT (HDT1); test: In vitro hydroxycinnamoyl-CoA transferase activity assay with crude E. coli extracts containing recombinant HDT, products by HPLC with PDA and MS; type: biochemical, red clover (Trifolium pratense L.); conditions: p-coumaroyl-, caffeoyl- or feruloyl-CoA donor; HPLC with PDA and MS detection
Experimental: General in vitro reactions for hydroxycinnamoyl-CoA transferase activity contained 100mM sodium phosphate buffer (pH 7.5), 25 to 50mM ascorbate, 1 to 2mM p-coumaroyl-, caffeoyl-, or feruloyl-CoA donor substrate, 1 to 6mM acceptor substrate (L-amino acids, shikimic acid, or malic acid), and red clover leaf or E. coli extract. When red clover extract was the enzyme source, reaction head space was exchanged for nitrogen to prevent oxidation of caffeoyl and L-DOPA moieties by endogenous PPO. Reactions were incubated at 30°C for up to 1h prior to being stopped by the addition of one-fifth volume of 10% formic acid. Precipitated protein was removed by centrifugation (17,000×g for 5min at room temperature) and the supernatant analyzed for reaction products by HPLC as described above.
Crude E. coli extracts containing the recombinant proteins were incubated with hydroxycinnamoyl-CoAs and acceptors, and the reactions were analyzed by HPLC with PDA and MS detection. […] In the case of caffeoyl-L-Tyr and caffeoyl-L-DOPA, where authentic compound was available for purchase, the in vitro-formed products were indistinguishable from the purchased standards in terms of retention time, UV absorption spectrum, and (m/z). For caffeoyl-L-Tyr, we also produced sufficient compound via an HDT1-mediated reaction to carry out ^1H and ^13C NMR to further confirm product identity (Supplementary Figure S2). Chemical shifts were consistent with those previously published for this compound ([Stark and Hofmann, 2005]). […] We only tested L-amino acids with HDT1, since this is what is present in clovamide and what is most abundantly present in nature. […] In this case, ability of the D-amino acid substrates to serve as acceptor substrates could be due to their structural (including stereochemistry) similarity to the D-phenyllactic acid acceptor also used by this enzyme.

[2] = biological target: red clover HDT1 (Trifolium pratense, UniProt A0A384ZRD3); test: Determination of kinetic parameters of HDT (initial rates by release of free CoA, DTNB, purified histidine-tagged HDT1); conditions: for kcat / Km: variable acceptor substrate; for Km: pH 8.0, 25°C
Experimental: Kinetic parameters for HDT were determined by measuring initial reaction rates by release of free CoA in real time using DTNB [5,5′-dithio-bis-(2-nitrobenzoic acid)] and spectroscopy as detailed elsewhere ([Sullivan and Bonawitz, 2018]). Measurements were made in a temperature-controlled spectrophotometer at 25°C. Reactions were carried out in 100mM sodium phosphate, 1mM EDTA, pH 8.0. Acceptor substrates were prepared in 1N HCl as 66.7×stock solutions, so an equal amount of 1N NaOH was added to reactions to neutralize the HCl (15mM final). Substrate and enzyme amounts used are detailed in Table 2.
All kinetic data analyses were carried out using GraphPad Prism version 7 or higher for Mac OS (GraphPad Software, La Jolla, CA, United States). Each analysis (i.e., series of substrate concentrations) was carried out in duplicate on different days with freshly prepared substrate and enzyme dilutions. Data were analyzed by non-linear regression of the replicated data. […] Kinetic parameters are reported±standard error (SE) as determined from the non-linear regression.
More limited analyses (explained below) were carried out with L-Phe and L-Leu acceptor substrates.

[3] = substrate: N[C@@H](Cc1ccc(O)cc1)C(=O)O; test: purified protein, by the assay type; conditions: other: variable acceptor substrate, pH 8.0, 25°C
[4] = substrate: N[C@@H](Cc1ccc(O)c(O)c1)C(=O)O; test: purified protein, by the assay type; conditions: other: variable acceptor substrate, pH 8.0, 25°C
[5] = constant substrate FA-CoA (20μM)
[6] = constant substrate p-CA-CoA (20μM)
[7] = constant substrate CA-CoA (50μM)

For `N[C@@H](Cc1ccc(O)c(O)c1)C(=O)O` [L-DOPA, L-3,4-dihydroxyphenlylalanine], the “Use as acceptor substrate (product formation with hydroxycinnamoyl-CoA donors)” value (shortened to “Use as acceptor substrate”) [1] was “capable of transferring”, the kcat [2, 5] was 0.75 ± 0.015 s⁻¹ and the kcat [2, 6] was 2.00 ± 0.022 s⁻¹.

`CC(C)C[C@H](N)C(=O)O` [L-Leu, L-leucine] was tested, and the “Use as acceptor substrate” value [1] was “can also serve as acceptors” and the Km [2, 7] was > 10000 µM.

With `N[C@@H](Cc1ccccc1)C(=O)O` [L-Phe, L-phenylalanine] the “Use as acceptor substrate” value [1] was “capable of transferring” and the Km [2, 7] was > 10000 µM.

With `N[C@@H](Cc1c[nH]c2ccccc12)C(=O)O` [L-Trp, L-tryptophan] the “Use as acceptor substrate” value [1] was “can also serve as acceptors”, the kcat [2, 7] was 1.21 ± 0.007 s⁻¹ and the Km [2, 7] was 1250 ± 26.7 µM. For the same molecule, the kcat [2, 5] was 0.35 ± 0.007 s⁻¹, the Km [2, 5] was 273 ± 24.1 µM and the kcat [2, 6] was 1.00 ± 0.009 s⁻¹. The Km [2, 6] was 2160 ± 63.4 µM.

`N[C@@H](Cc1ccc(O)cc1)C(=O)O` [L-Tyr, L-tyrosine] was tested, and the “Use as acceptor substrate” value [1] was “capable of transferring” and the “catalytic efficiency, fold higher compared to L-DOPA as acceptor” value ([2]; acceptor substrate comparison) was “about 10 fold”.

For `N=C(N)NCCC[C@H](N)C(=O)O` [arginine], the “Use as acceptor substrate” value [1] was “no product was detected”.

`O=C(O)CC(O)C(=O)O` (stereo not shown) [malic acid] was tested, and the “Use as acceptor substrate” value [1] was “No reaction products were seen”.

For `NCCc1ccc(O)cc1` [tyramine], the “Use as acceptor substrate” value [1] was “no reaction products were seen”.

B1: red clover HDT1 (Trifolium pratense) (protein)
chain: MVTIIASHTVIPEEPTPQGPFWLSDMDQVVRIRDVPTLYIYKTPKKNQENKNIVETFKNSLSKILVHYYPIAGRLCYIEGGRLELNLNAKGAILVEAETEKTMNDYGDFSHFDTIKELVPMIDYNQPIEEIPNFVVQLTNFKNNEGFAIGVAFLHPLSDGLGAIKFINSWAKIARGETLEANELPFLDRKLLKFSHTPLEPRFEHLELKPLPLILGRKDASEEKEKKTSATLLKLSSEQVDKLKKKANEEDVLGIQKKEYSRPYSKFEVISAHIWRCASKARELEDNQESVIRFIADVKNRMIPPLPKNYFGNALTQTATKGYIGEITSKPLGYVAQKIREATELINDEYIRSQIDVVRSFEHLDDARKMFIGEKARYFGNPNFNLTSWLSMPVYEADFGWGKPNYFGLADVSPHDRAVILLSPDDDGSVLVSFHFQIAHMELFNKYFYEEI
In the case of B1, the Km [3, 7] is reported as 342.0 ± 14.37 µM, the kcat [3, 7] is reported as 9.12 ± 0.114 s⁻¹ and the kcat/Km [3, 7] is reported as 26700 ± 1170 M⁻¹ s⁻¹. For the same molecule, the Km [3, 5] was 14.4 ± 0.64 µM, the kcat [3, 5] was 0.69 ± 0.006 s⁻¹ and the kcat/Km [3, 5] was 47900 ± 2160 M⁻¹ s⁻¹. For the same molecule, the Km [3, 6] was 145.3 ± 5.56 µM, the kcat [3, 6] was 2.74 ± 0.027 s⁻¹ and the kcat/Km [3, 6] was 18900 ± 750 M⁻¹ s⁻¹. The Km [4, 7] was 2465.0 ± 65.88 µM, the Km [4, 5] was 150.0 ± 7.65 µM and the Km [4, 6] was 989.8 ± 35.92 µM.
